Where two headings read alike, the source gives them in different places.
Experiments:
PAK6 = biological target: T1, PAK6 (Homo sapiens, UniProt Q9NQU5); assay: Competitive binding assay (Ambit), phage-displayed PAK vs immobilized staurosporine bait; details: 25° C., 1 hour, 0.1% DMSO, read-out: Kd value, Test PAK Inhibitor Affinity Assay
T1 construct: full length PAK or a PAK catalytic domain expressed on the surface of T7 bacteriophage; host or cells: T7 phage (modified T7 Select 10-3) grown in a BL21-derived E. coli host
T1 sequence (Q9NQU5 whole entry, the tested form may be a part): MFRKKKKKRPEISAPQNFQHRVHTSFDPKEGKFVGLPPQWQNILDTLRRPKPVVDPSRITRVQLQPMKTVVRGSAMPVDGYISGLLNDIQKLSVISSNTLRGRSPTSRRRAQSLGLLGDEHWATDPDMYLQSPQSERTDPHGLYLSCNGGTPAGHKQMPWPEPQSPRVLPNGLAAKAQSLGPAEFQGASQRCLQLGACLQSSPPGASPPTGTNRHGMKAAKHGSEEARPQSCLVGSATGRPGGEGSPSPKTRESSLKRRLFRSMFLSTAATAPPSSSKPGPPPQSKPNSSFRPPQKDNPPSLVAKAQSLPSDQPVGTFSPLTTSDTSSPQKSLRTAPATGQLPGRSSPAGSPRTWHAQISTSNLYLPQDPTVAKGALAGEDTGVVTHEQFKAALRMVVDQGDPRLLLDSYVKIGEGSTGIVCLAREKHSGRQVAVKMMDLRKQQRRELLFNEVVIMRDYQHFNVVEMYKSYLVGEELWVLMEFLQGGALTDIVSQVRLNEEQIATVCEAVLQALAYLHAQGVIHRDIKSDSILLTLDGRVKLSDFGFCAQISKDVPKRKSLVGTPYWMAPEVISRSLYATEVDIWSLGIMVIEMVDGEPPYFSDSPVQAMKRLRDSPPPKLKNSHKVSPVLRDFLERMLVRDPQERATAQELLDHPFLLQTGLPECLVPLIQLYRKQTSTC
Description: (§1) Binding data were fit to the equation:
(§2) PFU=L+((H−L)*(Kd(test)/(Kd(test)+[candidate])))

PAK2 = biological target: T2, PAK2 (Homo sapiens, UniProt Q13177); assay: as above
T2 construct: full length PAK or a PAK catalytic domain expressed on the surface of T7 bacteriophage; host or cells: T7 phage (modified T7 Select 10-3) grown in a BL21-derived E. coli host
T2 sequence (Q13177 whole entry, the tested form may be a part): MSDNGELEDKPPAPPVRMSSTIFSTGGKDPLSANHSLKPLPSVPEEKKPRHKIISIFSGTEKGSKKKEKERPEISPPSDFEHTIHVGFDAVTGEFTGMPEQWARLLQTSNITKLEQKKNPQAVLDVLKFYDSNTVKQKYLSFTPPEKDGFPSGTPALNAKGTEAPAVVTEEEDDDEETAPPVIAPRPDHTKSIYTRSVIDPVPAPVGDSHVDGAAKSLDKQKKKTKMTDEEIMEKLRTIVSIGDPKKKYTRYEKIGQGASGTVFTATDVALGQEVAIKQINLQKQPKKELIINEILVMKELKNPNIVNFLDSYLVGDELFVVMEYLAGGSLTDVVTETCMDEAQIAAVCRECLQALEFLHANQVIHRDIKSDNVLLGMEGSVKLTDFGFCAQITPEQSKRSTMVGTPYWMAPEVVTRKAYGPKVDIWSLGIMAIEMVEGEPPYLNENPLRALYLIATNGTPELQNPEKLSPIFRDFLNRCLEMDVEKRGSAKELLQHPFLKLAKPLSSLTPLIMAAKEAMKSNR
Description: as §1, §2

PAK1 = biological target: T3, PAK1 (Homo sapiens, UniProt Q13153); assay: as above
T3 construct: full length PAK or a PAK catalytic domain expressed on the surface of T7 bacteriophage; host or cells: T7 phage (modified T7 Select 10-3) grown in a BL21-derived E. coli host
T3 sequence (Q13153 whole entry, the tested form may be a part): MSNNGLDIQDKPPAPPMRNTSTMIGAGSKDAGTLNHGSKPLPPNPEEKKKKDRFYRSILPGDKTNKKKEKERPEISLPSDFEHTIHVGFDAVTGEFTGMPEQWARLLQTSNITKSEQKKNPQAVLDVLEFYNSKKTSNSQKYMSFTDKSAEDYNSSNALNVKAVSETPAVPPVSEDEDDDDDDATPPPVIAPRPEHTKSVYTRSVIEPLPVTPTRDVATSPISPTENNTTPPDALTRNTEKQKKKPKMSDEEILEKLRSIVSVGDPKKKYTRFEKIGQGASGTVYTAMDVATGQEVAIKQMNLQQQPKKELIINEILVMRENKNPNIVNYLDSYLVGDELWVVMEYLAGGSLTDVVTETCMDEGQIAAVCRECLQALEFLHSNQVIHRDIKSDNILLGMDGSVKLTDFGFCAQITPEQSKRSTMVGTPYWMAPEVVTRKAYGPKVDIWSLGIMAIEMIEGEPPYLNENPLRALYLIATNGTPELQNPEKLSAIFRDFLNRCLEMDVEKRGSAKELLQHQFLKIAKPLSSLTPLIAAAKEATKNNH
Description: as §1, §2

PAK7 = biological target: T4, PAK7 (Homo sapiens, UniProt Q9P286); assay: as above; details: 25° C., 1 hour, 0.1% DMSO, read-out: Kd value, Test PAK Inhibitor Affinity Assay
T4 construct: full length PAK or a PAK catalytic domain expressed on the surface of T7 bacteriophage; host or cells: T7 phage (modified T7 Select 10-3) grown in a BL21-derived E. coli host
T4 sequence (Q9P286 whole entry, the tested form may be a part): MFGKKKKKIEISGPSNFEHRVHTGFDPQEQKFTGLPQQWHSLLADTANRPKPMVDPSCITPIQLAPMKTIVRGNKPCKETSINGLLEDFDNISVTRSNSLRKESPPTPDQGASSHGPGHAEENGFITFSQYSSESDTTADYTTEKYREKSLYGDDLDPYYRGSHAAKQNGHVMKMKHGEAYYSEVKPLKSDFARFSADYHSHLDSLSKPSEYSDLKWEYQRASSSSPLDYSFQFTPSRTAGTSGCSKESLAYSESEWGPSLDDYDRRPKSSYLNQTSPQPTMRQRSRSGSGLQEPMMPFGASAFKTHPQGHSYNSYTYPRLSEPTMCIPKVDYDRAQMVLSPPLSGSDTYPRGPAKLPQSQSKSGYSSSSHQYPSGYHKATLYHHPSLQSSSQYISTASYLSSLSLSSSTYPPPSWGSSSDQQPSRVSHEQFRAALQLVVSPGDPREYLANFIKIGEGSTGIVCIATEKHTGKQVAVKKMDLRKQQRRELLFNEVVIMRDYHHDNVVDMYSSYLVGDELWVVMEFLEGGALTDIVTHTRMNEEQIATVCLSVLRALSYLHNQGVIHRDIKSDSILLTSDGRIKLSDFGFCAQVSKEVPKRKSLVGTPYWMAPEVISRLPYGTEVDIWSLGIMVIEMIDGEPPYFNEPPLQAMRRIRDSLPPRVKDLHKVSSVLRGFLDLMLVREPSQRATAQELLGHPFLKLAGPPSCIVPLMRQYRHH
Description: as §1, §2

PAK4 = PAK4 (Homo sapiens, UniProt O96013); assay: biochemical
PAK4, sequence (O96013 whole entry): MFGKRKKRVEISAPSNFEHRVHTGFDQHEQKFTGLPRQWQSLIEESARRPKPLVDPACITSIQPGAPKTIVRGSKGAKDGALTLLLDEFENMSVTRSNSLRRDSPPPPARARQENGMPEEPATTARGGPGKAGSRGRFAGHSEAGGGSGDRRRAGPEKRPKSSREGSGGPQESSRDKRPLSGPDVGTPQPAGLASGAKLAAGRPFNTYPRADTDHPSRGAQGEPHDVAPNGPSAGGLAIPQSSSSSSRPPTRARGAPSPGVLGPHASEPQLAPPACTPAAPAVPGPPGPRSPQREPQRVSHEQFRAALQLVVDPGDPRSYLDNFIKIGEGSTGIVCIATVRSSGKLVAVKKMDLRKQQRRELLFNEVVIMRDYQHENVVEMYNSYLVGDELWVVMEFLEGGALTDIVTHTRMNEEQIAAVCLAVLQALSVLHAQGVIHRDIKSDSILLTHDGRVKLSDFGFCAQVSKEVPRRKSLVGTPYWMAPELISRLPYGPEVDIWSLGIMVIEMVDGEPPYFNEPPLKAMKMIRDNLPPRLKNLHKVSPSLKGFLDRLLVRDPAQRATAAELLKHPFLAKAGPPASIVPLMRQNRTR
Description: When these three components are combined, the test substance is tested for its ability to compete, in a concentration-dependent manner, with the immobilized kinase bait probe for binding for binding to the phage-PAK catalytic domain. Afterwards, the amount of bait probe-bound phage-PAK can be detected, for example, by a phage plaque assay and/or quantitative PCR of phage DNA. The amount of probe-bound phage-PAK is inversely proportional to the affinity of the candidate inhibitor for the kinase and can be used in determining a Kd value of the test substance for the PAK catalytic site, as described below. […]
T7 kinase-tagged phage strains were grown in parallel in 24- or 96-well blocks in an E. coli host derived from the BL21 strain. […] Phage titer in the eluates was measured by standard plaque assays or by quantitative PCR. […]
Kd (probe) is the binding constant for the interaction between the kinase and the immobilized ligand, [Probe] is the concentration of the immobilized ligand [test] ½ is the concentration of the free candidate compound at the midpoint of the transition. […] Under these conditions, binding constants measured for the interaction between kinases and candidate compounds (Kd (test)) are therefore independent of the affinity of the immobilized ligand for the kinase (Kd (probe)). […]

Row | Kd (PAK6) [µM] | Kd (PAK2; PAK2, 25° C., 1 hour, 0.1% DMSO, read-out: Kd value, Test PAK Inhibitor Affinity Assay) [µM] | Kd (PAK1; PAK1, 25° C., 1 hour, 0.1% DMSO, read-out: Kd value, Test PAK Inhibitor Affinity Assay) [µM] | Kd (PAK7) [µM] | Kd (PAK4) [µM] | Kd (PAK2) [µM] | Kd (PAK1) [µM] | Structure (SMILES)
1 | ≥ 10 | ≥ 10 | < 5 | ≥ 10 | ≥ 10 | – | – | CCOc1cc2ncc(C#N)c(Nc3ccc(F)c(Cl)c3)c2cc1NC(=O)/C=C/CN(C)C [EKB-569]
2 | < 5 | – | – | – | – | ≥ 10 | ≥ 10 | Nc1nc(Nc2ccc(S(N)(=O)=O)cc2)nn1C(=O)c1c(F)cccc1F [JNJ-7706621]

— patent publication US20110294782A1, “SMALL MOLECULE PAK INHIBITORS” (Massachusetts Institute of Technology, priority 2006, published 2011)
